This note sets out measurements from US4011238A, “2-Imidazolidione derivatives” (Gruppo Lepetit S.p.A., priority 1972, dated 1977).

Read-outs that look alike come from different tables or passages of the source. Where only a bound is given, the exact number is not on record here.

In series [1] the test system is primary conditioned response. Description: CR: inhibition of the primary conditioned response. In kind it is in vivo, rat. The following applies: ip, read-out: CR (ED50). How it is done: (§1) The symbols CR and CR2 relate, respectively, to the tests of inhibition of the primary and secondary conditioned response according to the method of L. Cook et al., Ann. […] The inhibition of apomorphine emesis test in the dog is carried out according to the method of G. Chen. et al., J. Pharm. Exptl.

The nature of series [2]: acute toxicity (LD50), rat i.p. The following applies: in vivo, ip.
For series [3], the system named is secondary conditioned response. Description: CR2: inhibition of the secondary conditioned response. The series is classed as in vivo, rat. The following applies: ip, read-out: CR2 (ED50). How it is done: as §1
For another series, the system named is Apomorphine emesis. Description: inhibition of apomorphine emesis test in the dog. The series is classed as in vivo. The following applies: for ED50: Canis lupus familiaris, ip, read-out: Apomorphine emesis (ED50). How it is done: as §1
The next series deals with conditioned behavior. Description: conditioned behavior. The series is classed as in vivo, rat. The following applies: in comparison with chlorpromazine, in words. How it is done: as §1
Another series concerns cardiovascular system. The experiment in a line: side effects on the cardiovascular system. The series is classed as in vivo. The following applies: in comparison with chlorpromazine; at a dose level 5 to 10 times higher than that of chlorpromazine.
Setting [4] is: rat, i.p., primary conditioned response.
[5] abbreviates: rat, i.p., secondary conditioned response.

Broadly, the ED50 is the midpoint of the dose-response relation. The LD50 is the dose at which mortality reaches 50%. With `CN(C)CCN1CCN(c2cccc(Cl)c2)C1=O` [Imidoline, 1-(m-chlorophenyl)-3-(2-dimethylaminoethyl)-2-imidazolidinone], the ED50 is 5 to 10 mg/kg in series [1] (setting [4]); 2.5 mg/kg in series [3] (setting [5]); 0.25 mg/kg with Apomorphine emesis (dog, i.p.). Further, in series [2], the 50% lethal dose (LD50) is 200 mg/kg.
As to `CN(C)CCCN1c2ccccc2Sc2ccc(Cl)cc21` [CPZ, chlorpromazine], the ED50 was 3.95 mg/kg in series [1] (Rattus norvegicus), 0.96 mg/kg in series [3] (Rattus norvegicus) and 1 mg/kg with Apomorphine emesis. Also, the median lethal dose (LD50) in series [2] amounted to 120 mg/kg.
On to `CC1(C)CN(CCN2CCN(c3cccc(Cl)c3)C2=O)C1` [A, 1-(m-chlorophenyl)-3-[2-(3,3-dimethylazetidin-1-yl)ethyl]-2-imidazolidinone], for which the median effective dose (ED50) in series [1] (setting [4]) was 0.5 mg/kg; in series [3] (setting [5]) it was 0.25 mg/kg; in the series with Apomorphine emesis (dog, i.p.), less than 0.05 mg/kg. In the series on conditioned behavior, the “activity on the conditioned behavior” value is on record as “more specific activity on the conditioned behavior”. The compound further yielded an LD50 in series [2] of 200 mg/kg. For the same compound, the “side effects on the cardiovascular system” value in the series with cardiovascular system is recorded as “much lower side effects on the cardiovascular system”. Further, the anti-emetic effect result in the series on Apomorphine emesis (in comparison with chlorpromazine, in words) is on record as “more potent anti-emetic effect”.
